From the supplement of paper PMC4862054

What was measured:
[1] = system: BT-474; experiment: drug sensitivity score (DSS), CellTox Green (DSS (AUC-based score)); higher = stronger drug effect (viability inhibition or cytotoxicity); extreme values may be limits of the assay; settings: incubation time: 72 h
Method in brief: (§1)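 After 72 h of incubation in 384-well plates with compound at 5 concentrations (10-fold steps, 10,000-fold range set per compound), breast cancer cell lines seeded in 20 µl suspension were read first for CellTox Green fluorescence at 485/520 nm. CellTiter-Glo luminescence was measured next, after 10 min at room temperature. Normalisation on each plate used 0.1 % DMSO and a positive kill control, and the drug sensitivity score was computed from the area under the fitted dose-response curve.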

[2] = system: HCC1599; experiment: as above; settings: incubation time: 72 h
Method in brief: as §1

[3] = system: HCC1143; experiment: as above; settings: incubation time: 72 h
Method in brief: as §1

[4] = system: MCF-10A; experiment: drug sensitivity score (DSS), CellTiter-Glo (DSS (AUC-based score)); higher = stronger drug effect (viability inhibition or cytotoxicity); extreme values may be limits of the assay; settings: incubation time: 72 h
Method in brief: as §1

[5] = system: BT-474; experiment: as above; settings: incubation time: 72 h
Method in brief: as §1

[6] = system: HCC1599; experiment: as above; settings: incubation time: 72 h
Method in brief: as §1

[7] = system: BT-549; experiment: as above; settings: incubation time: 72 h
Method in brief: as §1

[8] = system: DU-4475; experiment: as above; settings: incubation time: 72 h
Method in brief: as §1

[9] = system: HDQ-P1; experiment: as above; settings: incubation time: 72 h
Method in brief: as §1

[10] = system: CAL-120; experiment: as above; settings: incubation time: 72 h
Method in brief: as §1

[11] = system: MDA-MB-453; experiment: as above; settings: incubation time: 72 h
Method in brief: as §1

[12] = system: CAL-85-1; experiment: as above; settings: incubation time: 72 h
Method in brief: as §1

[13] = system: CAL-51; experiment: as above; settings: incubation time: 72 h
Method in brief: as §1

[14] = system: MDA-MB-468; experiment: as above; settings: incubation time: 72 h
Method in brief: as §1

[15] = system: HCC1143; experiment: as above; settings: incubation time: 72 h
Method in brief: as §1

[16] = system: MDA-MB-436; experiment: as above; settings: incubation time: 72 h
Method in brief: as §1

[17] = system: MFM-223; experiment: as above; settings: incubation time: 72 h
Method in brief: as §1

[18] = system: Hs578T; experiment: as above; settings: incubation time: 72 h
Method in brief: as §1

[19] = system: SK-BR-3; experiment: as above; settings: incubation time: 72 h
Method in brief: as §1

[20] = system: CAL-148; experiment: as above; settings: incubation time: 72 h
Method in brief: as §1

[21] = system: MDA-MB-231; experiment: as above; settings: incubation time: 72 h
Method in brief: as §1

[22] = system: HCC1937; experiment: as above; settings: incubation time: 72 h
Method in brief: as §1

[23] = system: DU-4475; experiment: normalised viability (% of control), CellTiter-Blue; higher = more viable cells (about 100 = DMSO control); settings: 1000 nM; incubation time: 72 h
Protocol: (§2)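 DSRT, CellTiter-Blue viability, 72 h incubation. Signal is normalised to DMSO and benzethonium chloride controls. Value is the normalised response at dose 7.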

[24] = system: HDQ-P1; experiment: as above; settings: 1000 nM; incubation time: 72 h
Protocol: as §2

[25] = system: MDA-MB-453; experiment: as above; settings: 1000 nM; incubation time: 72 h
Protocol: as §2

[26] = system: CAL-51; experiment: as above; settings: 1000 nM; incubation time: 72 h
Protocol: as §2

SMILES | drug sensitivity score [1] | drug sensitivity score [2] | drug sensitivity score [3] | drug sensitivity score [4] | drug sensitivity score [5] | drug sensitivity score [6] | drug sensitivity score [7] | drug sensitivity score [8] | drug sensitivity score [9] | drug sensitivity score [10] | drug sensitivity score [11] | drug sensitivity score [12] | drug sensitivity score [13] | drug sensitivity score [14] | drug sensitivity score [15] | drug sensitivity score [16] | drug sensitivity score [17] | drug sensitivity score [18] | drug sensitivity score [19] | drug sensitivity score [20] | drug sensitivity score [21] | drug sensitivity score [22] | normalised viability [23] | normalised viability [24] | normalised viability [25] | normalised viability [26]
C=CC(=O)N1CCC[C@@H](n2nc(-c3ccc(Oc4ccccc4)cc3)c3c(N)ncnc32)C1 [Ibrutinib] | 2.25 | 0 | 0 | 4.67 | 0 | 0 | 0 | 0 | 3.29 | 0 | 5.93 | 2.66 | 2.76 | 0.811 | 0 | 0 | 0 | 0 | 17.4 | 0 | 0 | 0 | – | – | – | –
C=CCc1cccc(/C=N/NC(=O)CN2CCN(Cc3ccccc3)CC2)c1O [PAC-1] | 1 | 0 | 0 | 0 | 2.94 | 1.71 | 7.1 | 4.02 | 1.79 | 3.26 | 5.01 | 3 | 8.79 | 3.77 | 1.38 | 5.19 | 1.4 | 0 | 3.2 | 2.16 | 2.27 | 3.44 | – | – | – | –
CC[C@H](C)C(=O)O[C@H]1C[C@H](O)C=C2C=C[C@H](C)[C@H](CC[C@@H](O)C[C@@H](O)CC(=O)O)[C@H]21 [Pravastatin] | 0 | 0 | 0 | 0 | 3.69 | 6.85 | 2.77 | 4.02 | 1.68 | 2.92 | 0 | 1.96 | 14.4 | 3.34 | 2.94 | 26.2 | 2.84 | 0 | 4.87 | 3.75 | 0 | 3.68 | – | – | – | –
Cc1cnc(NC(=O)Nc2cc(Br)c(C)cc2OC[C@@H]2CNCCO2)cn1 [Rabusertib] | 0 | 0 | 0 | 0 | 0 | 1.93 | 0 | 0 | 0 | 0 | 2.1 | 0.115 | 0 | 0 | 0 | 0 | 0 | 1.2 | 1.38 | 0 | 0 | 0 | – | – | – | –
CNC(=O)c1cc(Oc2ccc(NC(=O)Nc3cc(C(C)(C)C)nn3-c3ccc4ncccc4c3)c(F)c2)ccn1 [Rebastinib] | 0 | 0 | 0 | 0 | 0.877 | 0 | 0 | 0 | 0 | 2.56 | 0 | 0 | 0 | 0 | 0 | 0 | 6.56 | 0 | 0 | 0 | 0 | 0 | – | – | – | –
CC(=O)Nc1cccc(-n2c(=O)n(C3CC3)c(=O)c3c(Nc4ccc(I)cc4F)n(C)c(=O)c(C)c32)c1 [Trametinib] | 0 | 0 | 0 | 20.3 | 5.25 | 0 | 0 | 27.2 | 10.8 | 5.16 | 0 | 6.58 | 0 | 1.05 | 0 | 0.966 | 1.88 | 2.9 | 0 | 0 | 5.25 | 3.49 | – | – | – | –
C1CN1c1nc(N2CC2)nc(N2CC2)n1 [Triethylenemelamine] | – | – | – | – | – | – | – | – | – | – | – | – | – | – | – | – | – | – | – | – | – | – | 102% | 102% | 94.4% | 104%
COc1cc2c(NC3CCN(C(C)C)CC3)nc(C3CCCCC3)nc2cc1OCCCN1CCCC1 [UNC0638] | 7.51 | 1.89 | 0 | 7.1 | 6.49 | 2.99 | 6.76 | 0.314 | 3.3 | 6.05 | 7.02 | 5.07 | 7.71 | 8.02 | 3.85 | 6.5 | 6.13 | 0 | 6.09 | 5.21 | 6.74 | 5.15 | – | – | – | –
